The record followed here is US20240279240A1, “HETEROCYCLIC DERIVATIVES AS JANUS KINASE INHIBITORS” (CHIESI FARMACEUTICI S.P.A., priority 2021, published 2024).

In assay [1] the target is T1, JAK 3 (Homo sapiens, UniProt P52333).
T1 sequence (P52333 1-1124): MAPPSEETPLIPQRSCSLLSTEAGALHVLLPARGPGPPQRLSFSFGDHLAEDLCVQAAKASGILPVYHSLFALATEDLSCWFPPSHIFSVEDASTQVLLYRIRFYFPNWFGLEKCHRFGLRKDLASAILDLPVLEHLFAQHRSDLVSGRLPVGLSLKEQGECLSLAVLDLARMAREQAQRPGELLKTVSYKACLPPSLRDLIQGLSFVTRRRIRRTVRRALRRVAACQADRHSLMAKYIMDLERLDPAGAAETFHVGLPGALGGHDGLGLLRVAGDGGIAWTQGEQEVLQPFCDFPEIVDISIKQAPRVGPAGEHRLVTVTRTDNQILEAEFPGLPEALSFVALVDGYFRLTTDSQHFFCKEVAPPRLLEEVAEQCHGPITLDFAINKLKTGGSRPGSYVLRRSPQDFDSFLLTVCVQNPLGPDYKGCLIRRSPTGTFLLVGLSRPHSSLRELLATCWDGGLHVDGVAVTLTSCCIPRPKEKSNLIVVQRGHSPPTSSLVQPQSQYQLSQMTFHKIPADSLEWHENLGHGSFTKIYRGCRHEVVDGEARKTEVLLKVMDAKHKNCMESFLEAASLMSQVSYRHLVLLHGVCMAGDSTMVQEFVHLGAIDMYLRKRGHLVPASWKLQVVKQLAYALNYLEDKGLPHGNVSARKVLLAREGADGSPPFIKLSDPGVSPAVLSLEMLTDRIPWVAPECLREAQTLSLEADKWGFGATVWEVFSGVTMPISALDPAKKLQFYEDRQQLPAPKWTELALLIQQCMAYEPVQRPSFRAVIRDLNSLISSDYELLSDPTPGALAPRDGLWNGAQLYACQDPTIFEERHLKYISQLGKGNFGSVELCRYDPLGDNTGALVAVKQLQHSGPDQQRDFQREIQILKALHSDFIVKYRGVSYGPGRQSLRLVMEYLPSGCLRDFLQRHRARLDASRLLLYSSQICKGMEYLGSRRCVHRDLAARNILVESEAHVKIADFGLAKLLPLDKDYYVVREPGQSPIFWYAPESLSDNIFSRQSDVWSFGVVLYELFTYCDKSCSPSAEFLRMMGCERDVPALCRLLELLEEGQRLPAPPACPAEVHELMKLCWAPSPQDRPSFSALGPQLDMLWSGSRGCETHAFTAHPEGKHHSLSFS
Description: Biochemical potency on JAK3, TR-FRET LANCE Ultra kinase assay (examples 1-99). As to conditions: ATP at Km (0.2 μM), read-out: JAK3 inhibitory activity (pIC50 class) (converted). In short, it runs like this:
(§1)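 LANCE Ultra TR-FRET with ULight-JAK-1 (Tyr1023) peptide at 30/50/20/10 nM and ATP (~Km) at 20/0.7/0.2/12 μM for JAK1/JAK2/JAK3/TYK2; enzymes 0.15/0.083/0.025/0.144 ng/μL. 1.5 h at r.t., EDTA stop, Eu-anti-phosphotyrosine read. 11-point 5-fold series from 20 μM; IC50 by variable-slope fit.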
(In general: In TR-FRET formats the signal depends on donor and acceptor labels being close together.)

The target of assay [2] is TYK2 (Homo sapiens, UniProt P29597). Description: Biochemical potency on Tyk2, TR-FRET LANCE Ultra kinase assay (examples 1-99). As to conditions: ATP at Km (12 μM), read-out: Tyk2 inhibitory activity (pIC50 class) (converted). In outline: as §1
Sequence of TYK2 (P29597 whole entry): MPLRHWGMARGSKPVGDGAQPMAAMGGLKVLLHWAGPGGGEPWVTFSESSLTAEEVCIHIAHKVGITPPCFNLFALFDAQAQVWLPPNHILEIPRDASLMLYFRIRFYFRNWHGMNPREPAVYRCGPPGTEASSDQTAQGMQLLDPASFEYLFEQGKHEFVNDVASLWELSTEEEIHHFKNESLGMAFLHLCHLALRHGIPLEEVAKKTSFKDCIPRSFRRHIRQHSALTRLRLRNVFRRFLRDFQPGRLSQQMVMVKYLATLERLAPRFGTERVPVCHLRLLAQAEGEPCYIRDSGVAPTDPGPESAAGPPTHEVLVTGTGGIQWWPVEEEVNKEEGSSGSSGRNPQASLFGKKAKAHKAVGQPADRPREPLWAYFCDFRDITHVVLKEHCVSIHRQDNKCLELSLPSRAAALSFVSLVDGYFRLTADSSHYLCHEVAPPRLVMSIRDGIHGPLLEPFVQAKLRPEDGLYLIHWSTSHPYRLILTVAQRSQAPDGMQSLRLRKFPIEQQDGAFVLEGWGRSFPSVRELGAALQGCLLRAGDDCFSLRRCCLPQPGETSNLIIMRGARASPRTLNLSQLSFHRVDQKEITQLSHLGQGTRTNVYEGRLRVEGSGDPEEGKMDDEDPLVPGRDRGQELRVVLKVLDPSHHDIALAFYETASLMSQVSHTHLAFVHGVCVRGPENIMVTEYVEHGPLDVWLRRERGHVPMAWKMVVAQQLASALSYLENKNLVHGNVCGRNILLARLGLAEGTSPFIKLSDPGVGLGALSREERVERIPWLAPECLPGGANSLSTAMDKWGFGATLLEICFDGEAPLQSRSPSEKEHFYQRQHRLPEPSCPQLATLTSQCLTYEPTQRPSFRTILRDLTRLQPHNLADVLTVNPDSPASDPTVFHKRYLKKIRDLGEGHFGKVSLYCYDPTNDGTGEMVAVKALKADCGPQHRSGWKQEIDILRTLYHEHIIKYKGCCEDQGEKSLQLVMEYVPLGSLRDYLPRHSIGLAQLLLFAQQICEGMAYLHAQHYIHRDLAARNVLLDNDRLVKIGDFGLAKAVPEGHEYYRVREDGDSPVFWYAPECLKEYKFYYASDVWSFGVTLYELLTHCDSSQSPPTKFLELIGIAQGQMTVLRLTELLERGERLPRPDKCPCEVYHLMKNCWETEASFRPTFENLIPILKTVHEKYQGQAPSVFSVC
Assay [3] has as its target JAK 1 (Homo sapiens, UniProt P23458). Description: Biochemical potency on JAK1, TR-FRET LANCE Ultra kinase assay (examples 1-99). The following applies: ATP at Km (20 μM), read-out: JAK1 inhibitory activity (pIC50 class) (converted). In outline:
as §1

Assay [4] concerns the target JAK 2 (Homo sapiens, UniProt O60674). Description: Biochemical potency on JAK2, TR-FRET LANCE Ultra kinase assay (examples 1-99). As to conditions: ATP at Km (0.7 μM), read-out: JAK2 inhibitory activity (pIC50 class) (converted). In short, it runs like this: as §1

Sequence of JAK 2 (O60674 whole entry): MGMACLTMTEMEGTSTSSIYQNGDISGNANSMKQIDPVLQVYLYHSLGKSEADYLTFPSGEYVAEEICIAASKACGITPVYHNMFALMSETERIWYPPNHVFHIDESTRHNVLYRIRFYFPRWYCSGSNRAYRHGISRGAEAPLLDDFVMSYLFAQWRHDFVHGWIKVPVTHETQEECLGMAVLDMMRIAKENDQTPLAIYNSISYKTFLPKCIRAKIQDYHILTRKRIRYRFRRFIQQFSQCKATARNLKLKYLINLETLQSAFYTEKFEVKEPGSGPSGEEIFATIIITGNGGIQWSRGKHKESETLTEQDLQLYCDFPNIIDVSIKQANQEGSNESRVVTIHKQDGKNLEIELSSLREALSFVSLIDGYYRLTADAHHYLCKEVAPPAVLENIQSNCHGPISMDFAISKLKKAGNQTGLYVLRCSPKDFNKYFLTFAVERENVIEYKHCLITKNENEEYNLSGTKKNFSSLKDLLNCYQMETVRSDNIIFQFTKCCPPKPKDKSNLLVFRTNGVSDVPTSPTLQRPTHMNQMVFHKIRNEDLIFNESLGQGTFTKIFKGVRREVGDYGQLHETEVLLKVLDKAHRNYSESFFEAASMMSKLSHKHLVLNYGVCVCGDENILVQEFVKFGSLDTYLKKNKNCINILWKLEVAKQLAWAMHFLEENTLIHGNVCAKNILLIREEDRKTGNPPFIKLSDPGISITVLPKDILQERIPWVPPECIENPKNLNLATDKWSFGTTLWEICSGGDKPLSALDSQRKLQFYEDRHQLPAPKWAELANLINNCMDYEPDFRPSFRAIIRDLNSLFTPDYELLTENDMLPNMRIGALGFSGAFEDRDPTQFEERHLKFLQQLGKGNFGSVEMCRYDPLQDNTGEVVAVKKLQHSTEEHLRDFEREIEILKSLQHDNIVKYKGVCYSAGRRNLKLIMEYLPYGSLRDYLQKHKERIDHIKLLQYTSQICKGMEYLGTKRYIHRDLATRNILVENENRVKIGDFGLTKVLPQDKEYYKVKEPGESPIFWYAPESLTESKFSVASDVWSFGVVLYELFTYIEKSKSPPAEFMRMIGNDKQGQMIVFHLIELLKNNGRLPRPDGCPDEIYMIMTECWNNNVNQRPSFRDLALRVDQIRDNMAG
Sequence of JAK 1 (P23458 whole entry): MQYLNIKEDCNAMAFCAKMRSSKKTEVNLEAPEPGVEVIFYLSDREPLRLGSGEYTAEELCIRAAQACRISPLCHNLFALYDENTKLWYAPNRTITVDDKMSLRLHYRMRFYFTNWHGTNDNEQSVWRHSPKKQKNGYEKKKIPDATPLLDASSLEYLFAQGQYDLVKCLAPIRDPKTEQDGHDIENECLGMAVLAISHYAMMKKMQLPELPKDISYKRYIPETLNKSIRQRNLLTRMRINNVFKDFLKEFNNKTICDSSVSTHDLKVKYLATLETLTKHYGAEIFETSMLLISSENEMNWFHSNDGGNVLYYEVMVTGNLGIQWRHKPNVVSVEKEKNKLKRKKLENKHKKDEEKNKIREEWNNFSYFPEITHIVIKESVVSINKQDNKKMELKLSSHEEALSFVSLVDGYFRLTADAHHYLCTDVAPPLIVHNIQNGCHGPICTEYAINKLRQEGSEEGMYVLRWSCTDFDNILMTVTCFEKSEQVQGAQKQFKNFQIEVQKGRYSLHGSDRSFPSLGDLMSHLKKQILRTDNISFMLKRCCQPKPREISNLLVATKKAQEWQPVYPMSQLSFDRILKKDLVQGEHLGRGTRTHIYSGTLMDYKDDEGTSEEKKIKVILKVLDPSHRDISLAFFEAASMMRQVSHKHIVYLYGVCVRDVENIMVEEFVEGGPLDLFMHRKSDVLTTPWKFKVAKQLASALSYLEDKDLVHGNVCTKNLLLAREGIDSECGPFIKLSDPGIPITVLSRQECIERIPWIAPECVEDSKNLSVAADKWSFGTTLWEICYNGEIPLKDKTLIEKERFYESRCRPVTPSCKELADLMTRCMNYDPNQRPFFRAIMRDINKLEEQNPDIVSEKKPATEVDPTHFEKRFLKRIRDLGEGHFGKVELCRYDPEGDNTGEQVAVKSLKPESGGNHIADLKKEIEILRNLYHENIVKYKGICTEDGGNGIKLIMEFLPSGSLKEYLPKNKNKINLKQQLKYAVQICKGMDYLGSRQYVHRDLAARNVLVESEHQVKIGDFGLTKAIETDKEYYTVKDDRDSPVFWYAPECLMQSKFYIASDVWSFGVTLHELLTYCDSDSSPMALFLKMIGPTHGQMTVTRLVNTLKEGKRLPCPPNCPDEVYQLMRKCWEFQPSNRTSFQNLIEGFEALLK

For the compound `CSc1ccc(OC(F)F)c(-n2nc(C)c3cnc(-c4cnn5cccnc45)cc32)c1` [Example 13, 1-(2-(difluoromethoxy)-5-(methylthio)phenyl)-3-methyl-6-(pyrazolo[1,5-a]pyrimidin-3-yl)-1H-pyrazolo[4,3-c]pyridine], the IC50 was not above 5.01 nM in assay [1], 5.01 to 50.1 nM in assay [2], not above 5.01 nM in assay [3] and not above 5.01 nM in assay [4].

Take `COc1ccc(S(=O)(=O)NCCN2CCN(C)CC2)cc1-n1nc(C)c2cnc(-c3cnn4cccnc34)cc21` [Example 18, 4-methoxy-3-(3-methyl-6-(pyrazolo[1,5-a]pyrimidin-3-yl)-1H-pyrazolo[4,3-c]pyridin-1-yl)-N-(2-(4-methylpiperazin-1-yl)ethyl)benzenesulfonamide]: the IC50 was more than 50.1 nM in assay [1], more than 50.1 nM in assay [2], 5.01 to 50.1 nM in assay [3] and 5.01 to 50.1 nM in assay [4].

For the compound `CCCS(=O)(=O)c1ccc(OC)c(-n2nc(C)c3cnc(-c4cnn5cccnc45)cc32)c1` [Example 10, 1-(2-methoxy-5-(propylsulfonyl)phenyl)-3-methyl-6-(pyrazolo[1,5-a]pyrimidin-3-yl)-1H-pyrazolo[4,3-c]pyridine], the IC50 in assay [1] is not above 5.01 nM; in assay [2] it was more than 50.1 nM; in assay [3] it was 5.01 to 50.1 nM; in assay [4], 5.01 to 50.1 nM.

For the compound `COc1ccc(Cl)cc1-n1ncc2c(N(C)C)nc(-c3cnn4cccnc34)cc21` [Example 51, 1-(5-chloro-2-methoxyphenyl)-N,N-dimethyl-6-(pyrazolo[1,5-a]pyrimidin-3-yl)-1H-pyrazolo[4,3-c]pyridin-4-amine], the IC50 in assay [1] is 5.01 to 50.1 nM; in assay [2], more than 50.1 nM; in assay [3] it was 5.01 to 50.1 nM; in assay [4] it was 5.01 to 50.1 nM.

As to `Cc1nn(-c2cc(Br)ccc2OC(F)F)c2cc(-c3cnn4cccnc34)ncc12` [Example 63, 1-(5-bromo-2-(difluoromethoxy)phenyl)-3-methyl-6-(pyrazolo[1,5-a]pyrimidin-3-yl)-1H-pyrazolo[4,3-c]pyridine], the IC50 in assay [1] was not above 5.01 nM; in assay [2] it was 5.01 to 50.1 nM; in assay [3] it was not above 5.01 nM; in assay [4], not above 5.01 nM.

Take `Cc1nn(-c2cc(C#N)ccc2OC(F)F)c2cc(-c3cnn4cccnc34)ncc12` [Example 64, 4-(difluoromethoxy)-3-(3-methyl-6-(pyrazolo[1,5-a]pyrimidin-3-yl)-1H-pyrazolo[4,3-c]pyridin-1-yl)benzonitrile]: the IC50 was not above 5.01 nM in assay [1], 5.01 to 50.1 nM in assay [2], 5.01 to 50.1 nM in assay [3] and not above 5.01 nM in assay [4].

As to `Cc1nn(-c2cc(SC3CCNCC3)ccc2OC(F)F)c2cc(-c3cnn4cccnc34)ncc12` [Example 74, 1-(2-(difluoromethoxy)-5-(piperidin-4-ylthio)phenyl)-3-methyl-6-(pyrazolo[1,5-a]pyrimidin-3-yl)-1H-pyrazolo[4,3-c]pyridine], the IC50 in assay [1] is 5.01 to 50.1 nM; in assay [2], more than 50.1 nM; in assay [3], more than 50.1 nM; in assay [4], 5.01 to 50.1 nM.

Turning to `CNc1nc(-c2cnn3cccnc23)cc2c1cnn2-c1cc(Cl)ccc1OC` [Example 52, 1-(5-chloro-2-methoxyphenyl)-N-methyl-6-(pyrazolo[1,5-a]pyrimidin-3-yl)-1H-pyrazolo[4,3-c]pyridin-4-amine], the IC50 in assay [1] was more than 50.1 nM; in assay [2], more than 50.1 nM; in assay [3], more than 50.1 nM; in assay [4], 5.01 to 50.1 nM.

`COc1ccc(C)cc1-n1nc(NCCN(C)C)c2cnc(-c3cnn4cccnc34)cc21` [Example 45, N1-(1-(2-methoxy-5-methylphenyl)-6-(pyrazolo[1,5-a]pyrimidin-3-yl)-1H-pyrazolo[4,3-c]pyridin-3-yl)-N2,N2-dimethylethane-1,2-diamine]: the IC50 in assay [1] is 5.01 to 50.1 nM; in assay [2] it was more than 50.1 nM; in assay [3], 5.01 to 50.1 nM; in assay [4], 5.01 to 50.1 nM.

In the case of `COc1ccc(Cl)cc1-n1ncc2c(NCCNC(C)=O)nc(-c3cnn4cccnc34)cc21` [Example 53, N-(2-((1-(5-chloro-2-methoxyphenyl)-6-(pyrazolo[1,5-a]pyrimidin-3-yl)-1H-pyrazolo[4,3-c]pyridin-4-yl)amino)ethyl)acetamide], the IC50 in assay [1] is more than 50.1 nM; in assay [2] it was more than 50.1 nM; in assay [3], 5.01 to 50.1 nM; in assay [4], more than 50.1 nM.

In the case of `COc1cc(O)c(Cl)cc1-n1nc(C)c2cnc(-c3cnn4cccnc34)cc21` [Example 59, 2-chloro-5-methoxy-4-(3-methyl-6-(pyrazolo[1,5-a]pyrimidin-3-yl)-1H-pyrazolo[4,3-c]pyridin-1-yl)phenol], the IC50 in assay [1] was not above 5.01 nM; in assay [2] it was 5.01 to 50.1 nM; in assay [3], not above 5.01 nM; in assay [4], not above 5.01 nM.

In the case of `COc1ccc(S(=O)(=O)NCCO)cc1-n1nc(C)c2cnc(Nc3ncc[nH]c3=O)cc21` [Example 92, N-(2-hydroxyethyl)-4-methoxy-3-(3-methyl-6-((3-oxo-3,4-dihydropyrazin-2-yl)amino)-1H-pyrazolo[4,3-c]pyridin-1-yl)benzenesulfonamide], the IC50 in assay [1] was not above 5.01 nM; in assay [2], more than 50.1 nM; in assay [3], 5.01 to 50.1 nM; in assay [4] it was not above 5.01 nM.

Turning to `COc1ccc(S(C)(=O)=O)cc1-n1nc(C(=O)NCCCN2CCOCC2)c2cnc(-c3cnn4cccnc34)cc21` [Example 84, 1-(2-methoxy-5-(methylsulfonyl)phenyl)-N-(3-morpholinopropyl)-6-(pyrazolo[1,5-a]pyrimidin-3-yl)-1H-pyrazolo[4,3-c]pyridine-3-carboxamide], the IC50 in assay [1] was 5.01 to 50.1 nM; in assay [2], more than 50.1 nM; in assay [3], 5.01 to 50.1 nM; in assay [4] it was 5.01 to 50.1 nM.

On to `CSc1ccc(Cl)cc1-n1nc(C)c2cnc(-c3cnn4cccnc34)cc21` [Example 5, 1-(5-chloro-2-(methylthio)phenyl)-3-methyl-6-(pyrazolo[1,5-a]pyrimidin-3-yl)-1H-pyrazolo[4,3-c]pyridine], for which the IC50 in assay [1] is 5.01 to 50.1 nM; in assay [2], 5.01 to 50.1 nM; in assay [3], 5.01 to 50.1 nM; in assay [4], not above 5.01 nM.

For the compound `COc1ccc(Cl)cc1-n1ncc2c(NC(C)=O)nc(-c3cnn4cccnc34)cc21` [Example 55, N-(1-(5-chloro-2-methoxyphenyl)-6-(pyrazolo[1,5-a]pyrimidin-3-yl)-1H-pyrazolo[4,3-c]pyridin-4-yl)acetamide], the IC50 in assay [1] is more than 50.1 nM; in assay [2], more than 50.1 nM; in assay [3], 5.01 to 50.1 nM; in assay [4], 5.01 to 50.1 nM.

For the compound `CNc1nn(-c2cc(Cl)ccc2OC)c2cc(-c3cnn4cccnc34)ncc12` [Example 41, 1-(5-chloro-2-methoxyphenyl)-N-methyl-6-(pyrazolo[1,5-a]pyrimidin-3-yl)-1H-pyrazolo[4,3-c]pyridin-3-amine], the IC50 is not above 5.01 nM in assay [1], 5.01 to 50.1 nM in assay [2], not above 5.01 nM in assay [3] and not above 5.01 nM in assay [4].

In the case of `Cc1nn(-c2cc(Cl)ccc2OC(F)F)c2cc(Nc3ncc[nH]c3=O)ncc12` [Example 99, 3-((1-(5-chloro-2-(difluoromethoxy)phenyl)-3-methyl-1H-pyrazolo[4,3-c]pyridin-6-yl)amino)pyrazin-2(1H)-one], the IC50 is not above 5.01 nM in assay [1], 5.01 to 50.1 nM in assay [2], not above 5.01 nM in assay [3] and not above 5.01 nM in assay [4].

With `COc1ccc(C(F)(F)F)cc1-n1nc(C)c2cnc(-c3cnn4cccnc34)cc21` [Example 4, 1-(2-methoxy-5-(trifluoromethyl)phenyl)-3-methyl-6-(pyrazolo[1,5-a]pyrimidin-3-yl)-1H-pyrazolo[4,3-c]pyridine], the IC50 was 5.01 to 50.1 nM in assay [1], more than 50.1 nM in assay [2], 5.01 to 50.1 nM in assay [3] and not above 5.01 nM in assay [4].
